Measured values published in PubChem BioAssay AID493040 (Abbott Labs, 2011).
Calls of active or inactive are those of the source. The rule behind the calls is not given here.

Columns and labels:
Assay in all cases: PubChem AID 493040
[1] = target: Cyclin-dependent kinase 2 (Homo sapiens) (UniProt P24941); settings: kinase panel binding, pKi; CDK2
[2] = target: Rho-associated protein kinase 2 (Homo sapiens) (UniProt O75116); settings: kinase panel binding, pKi; ROCK2
[3] = target: Serine/threonine-protein kinase Sgk2 (Homo sapiens) (UniProt Q9HBY8); settings: kinase panel binding, pKi; SGK
Serine/threonine-protein kinase Sgk2 (Homo sapiens), sequence (Q9HBY8 whole entry, looked up): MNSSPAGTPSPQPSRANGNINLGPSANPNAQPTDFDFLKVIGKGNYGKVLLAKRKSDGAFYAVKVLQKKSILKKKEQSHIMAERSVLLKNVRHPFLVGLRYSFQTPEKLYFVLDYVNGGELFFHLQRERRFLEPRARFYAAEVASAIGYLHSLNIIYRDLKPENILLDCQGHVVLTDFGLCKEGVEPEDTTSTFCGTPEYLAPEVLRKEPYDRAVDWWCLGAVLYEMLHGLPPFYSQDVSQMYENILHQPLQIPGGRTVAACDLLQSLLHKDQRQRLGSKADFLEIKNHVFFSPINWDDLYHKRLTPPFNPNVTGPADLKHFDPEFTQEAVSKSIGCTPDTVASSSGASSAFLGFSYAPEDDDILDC

[4] = target: Mitogen-activated protein kinase 14 (Homo sapiens) (UniProt Q16539); settings: kinase panel binding, pKi; MAPK14
Mitogen-activated protein kinase 14 (Homo sapiens), sequence (Q16539 whole entry, looked up): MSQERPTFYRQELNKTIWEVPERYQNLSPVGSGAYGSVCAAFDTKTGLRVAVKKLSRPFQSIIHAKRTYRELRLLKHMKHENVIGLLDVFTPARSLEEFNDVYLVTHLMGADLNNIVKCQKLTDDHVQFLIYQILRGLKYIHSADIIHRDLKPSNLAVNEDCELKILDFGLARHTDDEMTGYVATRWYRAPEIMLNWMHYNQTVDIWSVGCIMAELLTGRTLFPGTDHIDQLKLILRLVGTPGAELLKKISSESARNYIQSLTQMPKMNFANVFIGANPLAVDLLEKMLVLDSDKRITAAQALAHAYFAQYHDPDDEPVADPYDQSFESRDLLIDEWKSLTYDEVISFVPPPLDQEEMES

[5] = target: Cell division cycle 7-related protein kinase (Homo sapiens) (UniProt O00311); settings: kinase panel binding, pKi; CDC7
Cell division cycle 7-related protein kinase (Homo sapiens), sequence (O00311 whole entry, looked up): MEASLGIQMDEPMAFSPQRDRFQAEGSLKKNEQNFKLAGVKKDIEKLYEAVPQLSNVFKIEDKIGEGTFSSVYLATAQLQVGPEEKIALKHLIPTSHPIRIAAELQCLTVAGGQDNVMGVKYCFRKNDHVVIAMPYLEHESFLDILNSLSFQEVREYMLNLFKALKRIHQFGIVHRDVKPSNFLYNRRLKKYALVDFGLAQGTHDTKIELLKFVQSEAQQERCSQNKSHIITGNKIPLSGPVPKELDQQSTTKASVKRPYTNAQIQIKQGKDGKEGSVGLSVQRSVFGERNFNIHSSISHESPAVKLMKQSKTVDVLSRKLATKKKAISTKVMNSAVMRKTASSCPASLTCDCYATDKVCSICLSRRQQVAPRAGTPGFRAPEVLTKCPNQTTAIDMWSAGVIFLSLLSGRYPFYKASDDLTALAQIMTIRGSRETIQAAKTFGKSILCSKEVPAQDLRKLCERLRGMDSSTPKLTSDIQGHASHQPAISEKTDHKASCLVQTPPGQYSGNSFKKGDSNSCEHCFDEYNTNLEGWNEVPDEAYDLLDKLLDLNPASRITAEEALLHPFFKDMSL

Rho-associated protein kinase 2 (Homo sapiens), sequence (O75116 whole entry, looked up): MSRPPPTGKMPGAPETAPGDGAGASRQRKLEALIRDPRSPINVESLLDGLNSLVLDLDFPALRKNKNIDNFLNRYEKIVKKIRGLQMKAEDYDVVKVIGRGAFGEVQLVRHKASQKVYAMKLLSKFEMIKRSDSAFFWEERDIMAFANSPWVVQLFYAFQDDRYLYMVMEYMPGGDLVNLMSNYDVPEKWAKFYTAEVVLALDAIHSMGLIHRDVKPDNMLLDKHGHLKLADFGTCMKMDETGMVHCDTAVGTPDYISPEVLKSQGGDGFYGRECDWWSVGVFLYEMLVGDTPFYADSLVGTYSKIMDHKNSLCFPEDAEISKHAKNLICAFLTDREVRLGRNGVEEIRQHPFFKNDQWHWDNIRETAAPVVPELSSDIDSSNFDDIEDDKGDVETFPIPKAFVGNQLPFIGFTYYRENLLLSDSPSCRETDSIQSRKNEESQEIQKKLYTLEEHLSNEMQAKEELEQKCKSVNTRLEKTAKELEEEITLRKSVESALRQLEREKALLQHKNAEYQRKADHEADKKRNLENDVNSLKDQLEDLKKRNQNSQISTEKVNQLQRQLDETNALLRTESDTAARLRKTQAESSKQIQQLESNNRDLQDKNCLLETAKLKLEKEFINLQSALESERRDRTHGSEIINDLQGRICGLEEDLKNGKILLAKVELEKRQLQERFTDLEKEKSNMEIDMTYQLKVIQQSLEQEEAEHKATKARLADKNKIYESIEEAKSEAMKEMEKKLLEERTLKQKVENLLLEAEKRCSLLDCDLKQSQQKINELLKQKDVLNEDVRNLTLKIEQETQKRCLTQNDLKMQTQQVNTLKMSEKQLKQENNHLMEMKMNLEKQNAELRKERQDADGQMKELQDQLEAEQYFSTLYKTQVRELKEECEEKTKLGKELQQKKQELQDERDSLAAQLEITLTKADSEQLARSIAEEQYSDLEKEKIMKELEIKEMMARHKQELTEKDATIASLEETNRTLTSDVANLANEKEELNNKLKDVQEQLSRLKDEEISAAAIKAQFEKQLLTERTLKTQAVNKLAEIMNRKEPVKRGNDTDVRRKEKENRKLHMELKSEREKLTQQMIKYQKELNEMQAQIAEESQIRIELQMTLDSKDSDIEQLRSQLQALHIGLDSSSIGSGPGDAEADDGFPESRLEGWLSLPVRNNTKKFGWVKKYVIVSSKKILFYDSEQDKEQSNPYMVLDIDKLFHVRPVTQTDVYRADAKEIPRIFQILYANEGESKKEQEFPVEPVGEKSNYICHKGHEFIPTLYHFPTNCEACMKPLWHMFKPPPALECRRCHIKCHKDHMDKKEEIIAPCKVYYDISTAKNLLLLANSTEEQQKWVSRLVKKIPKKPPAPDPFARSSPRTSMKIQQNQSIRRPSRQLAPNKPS

Row | Compound | Ki [1] [µM] | Ki [2] | other results
1 | Cc1cccc(CNc2cc(-c3c[nH]c4ncccc34)cc(Cl)n2)c1C | 0.2 | 0.0316 µM | –
2 | Oc1cccc(-c2nc(N3CCOCC3)c3oc4ncccc4c3n2)c1 | – | – | Ki [3]: > 7.94 µM (inactive)
3 | O=S(=O)(Nc1ccccn1)c1ccc(N=Cc2c(O)[nH]c3ccc4ncsc4c23)cc1 | – | – | Ki [3]: 0.0158 µM
4 | Fc1ccc2c(c1)-c1[nH]ncc1CS2 | 20 | – | –
5 | CCCCNc1cc(-c2c[nH]c3ncccc23)ncn1 | 0.2 | 0.02 µM | –
6 | Oc1ccc(-c2nc(-c3ccc(F)cc3)c(-c3ccncc3)[nH]2)cc1 | – | > 3.98 µM (inactive) | Ki [3]: > 6.31 µM (inactive)
7 | NC(=O)c1ccc(Nc2ncnc3[nH]cc(-c4ccccc4)c23)cc1 | 0.501 | 0.251 µM | –
8 | COCCNc1cc(-c2c[nH]c3ncccc23)cc(Cl)n1 | 0.251 | 0.00501 µM | –
9 | O=C(NCc1ccccc1)c1c[nH]n2c(=O)cc(-c3ccncc3)nc12 | 0.158 | > 7.94 µM (inactive) | –
10 | CCOC(=O)c1c[nH]n2c(=O)cc(-c3ccncc3)nc12 | – | 2 µM | –
11 | Nc1n[nH]c2ccc(-c3cc(Cc4ccccc4)no3)cc12 | 0.2 | 0.0251 µM | –
12 | CC(C)CC(NC(=O)c1cccc(-n2nc(C(C)(C)C)cc2NC(=O)Nc2cccc3ccccc23)c1)C(N)=O (stereo not given) | – | – | Ki [4]: 0.794 µM
13 | O=C1Nc2ccccc2Nc2cc(-c3ccncc3F)ccc21 | 0.398 | 0.126 µM | –
14 | O=C1CN=C(c2cccc(Cl)c2)c2c(sc3c2CCCC3)N1 | 7.94 | – | –
15 | O=C(Nc1ccccc1)Nc1nccs1 | 20 | – | –
16 | O=c1ncn2nc(Sc3ccc(F)cc3F)ccc2c1-c1c(Cl)cccc1Cl | – | – | Ki [3]: > 7.94 µM (inactive)
17 | O=c1cc(-c2ccncc2)nc(NCc2cc(F)cc(F)c2)[nH]1 | 0.794 | 0.794 µM | –
18 | O=c1cc(-c2ccc(F)cc2)nc2c(-c3ccc(F)cc3)c[nH]n12 | – | > 7.94 µM (inactive) | –
19 | c1ccc(Cn2cc(-c3ccc4[nH]nc(-c5cn(Cc6ccccc6)nn5)c4c3)nn2)cc1 | 0.00501 | 0.126 µM | –
20 | CC(C)(C)c1cc(NC(=O)c2cc3ccccc3s2)n(-c2cccc(OCC(=O)O)c2)n1 | – | – | Ki [4]: 0.794 µM
21 | COc1cc2c(Oc3ccc4[nH]c(C)cc4c3F)ncnc2cc1OCCCN1CCCC1 | – | – | Ki [3]: > 10 µM (inactive)
22 | CN(C)c1ccc(-c2c(-c3ccc4[nH]nc(N)c4c3)nnn2Cc2ccccc2)cc1 | 0.126 | 0.02 µM | Ki [5]: 0.000398 µM

Row | Compound | Ki [1] [µM] | Ki [2] | other results
23 | CS(=O)(=O)Nc1ccccc1-c1ccc2c(c1)Nc1ccccc1NC2=O | 6.31 | – | –
24 | C=CCNc1cc(-c2c[nH]c3ncccc23)cc(Cl)n1 | 0.1 | 0.0126 µM | –
25 | CC(C)(C)c1cc(NC(=O)c2cc3ccccc3s2)n(-c2ccc(OCC(=O)O)cc2)n1 | – | – | Ki [4]: 2.51 µM
26 | Nc1n[nH]c2ccc(-c3nnn(Cc4ccccc4)c3C3CC3)cc12 | 0.0794 | 0.02 µM | –
27 | Cc1cccc(CNc2cc(-c3c[nH]c4ncccc34)ncn2)c1 | 0.0398 | 0.0126 µM | –
28 | OCCCCNc1cc(-c2c[nH]c3ncccc23)cc(Cl)n1 | 0.126 | 0.0158 µM | –
29 | NC(=O)c1ccc2c(ccn2-c2cccc(Cl)c2)c1 | – | 2.51 µM | –
30 | CCn1c(-c2nonc2N)nc2cnc(Oc3cccc(NC(=O)c4ccc(OCCN5CCOCC5)cc4)c3)cc21 | 0.794 | – | Ki [3]: 0.2 µM
31 | NC(=O)c1ccc(-c2ccnc(N)n2)cc1N1CCCCC1 | 1.26 | 1.58 µM | –
32 | Cc1cc(=O)n2[nH]cc(C(=O)NCc3ccccc3)c2n1 | – | 2.51 µM | –
33 | CCOC(=O)c1cn(-c2ccc(O)cc2C)c2cc(-c3ccncc3)ccc2c1=O | 3.98 | 0.0316 µM | Ki [3]: > 10 µM (inactive)
34 | CCOC(=O)c1c(NC(=O)C2C(C)(C)C2(C)C)sc2cnccc12 | 1 | – | –
35 | c1ccc(Cn2nnc(-c3ccc4[nH]ncc4c3)c2-c2ccccc2)cc1 | 0.0631 | – | –
36 | c1ccc(Cn2cc(-c3ccc4[nH]nc(-c5ccccc5)c4c3)nn2)cc1 | 0.1 | 0.0631 µM | –
37 | CCNC(=O)c1[nH]nc(-c2cc(Cl)c(O)cc2O)c1-c1ccc(OC)cc1 | 6.31 | 2.51 µM | –
38 | CC(C)(O)CNc1cc(-c2c[nH]c3ncccc23)cc(Cl)n1 | 0.251 | 0.0158 µM | –
39 | CC(C)(C)c1cc(NC(=O)C(=O)c2cccc3ccccc23)n(-c2ccc(OCCC(N)=O)cc2)n1 | – | – | Ki [4]: 0.631 µM
40 | CNCCOc1cncc(-c2ccc3n[nH]c(C)c3c2)c1 | 0.501 | 0.02 µM | –
41 | Cc1ccccc1-c1c(-c2ccc3n[nH]c(C)c3c2)nnn1Cc1ccccc1 | 0.00398 | – | –
42 | CCCCOc1cc(-c2ccncc2)cc2[nH]nc(N)c12 | 1 | 0.126 µM | –
43 | O=C1N=c2ccc(Br)cc2=C1c1sc(=S)[nH]c1O | – | – | Ki [3]: 2 µM
44 | Cc1[nH]nc2ccc(-c3cncc(OCCNS(C)(=O)=O)c3)cc12 | 0.316 | 0.158 µM | –
